Where “and” joins values, the source holds several entries; their conditions need not be identical. Equal values may be shown once.
Experiments:
[1] = tested on: R28 cells; experiment: Dye transfer/scrape loading gap junction assay in R28 cells; assay type: cell-based, rat; settings: 10 μM for 40 minutes
Experimental: To determine the effects of the compounds of the invention on gap junctions, […] R28 cells and lucifer yellow dye and rhodamine dextran were used to study gap junction. (Das, S.; Lauer, J.; Barnett, M.; Lin, D.; Akoev, V.; Battina, S.; Hua, D. H.; Takemoto, D. J. PKCγ phosphorylates connexin50 on serine-430. A presentation at 2006 ARVO Annual Meeting, Apr. 30-May 4, 2006, Fort Lauderdale, Fla.). […] The cells were treated with different compounds as shown @ 10 μM for 40 minutes. A mixture of lucifer yellow (LY) and rhodamine dextran (RD) was added to the cells at the center of the coverslip. Two cuts across the coverslip were made to form a transient tear in the plasma membranes of the cells to permit dye transfer through gap junctions. Cells were incubated with the dye for 20 minutes, then fixed and examined by fluorescent microscopy. For quantitative analysis the extent of dye transfer was estimated by counting the number of LY and RD labeled cells in the microscopic field and graphed. […] PQ3 is useful as a drug having reduced gap junction inhibitory activity. The gap junction activity of other compounds of the invention may be tested as described herein without the use of undue experimentation.
Gap junction activity assay. R28 cells were grown to 90% confluency on coverslips. They were treated with PQ1 at 10 μM for 40 min. A mixture of 1% each, in PBS, Lucifer yellow (LY) and Rhodamine Dextran (RD) (Molecular Probes, Eugene, Oreg.) were added to the cells at the center of the coverslip. Two cuts across the coverslip were made to form a transient tear in the plasma membranes of the cells to permit dye entry into cells. Cells were incubated with 2.5 μl of both of the dyes for 20 min, then fixed in 2.5% paraformaldehyde, washed in PBS and examined by fluorescent microscopy using a Nikon C1 confocal microscopy. For quantitation, the extent of dye transfer was calculated by counting the number of LY-labeled cells from the initial scrape with subtraction of RD-labeled cells, as a cell damage control, in the microscopic field. Four points per slide were photographed. The experiments were repeated six times, and data are means±SEM.

[2] = tested on: MDA-MB-453 human breast cancer cells; experiment: Soft agar colony growth, MDA-MB-453 cells; assay type: cell-based; settings: for effect on breast cancer cell colony growth: Table 2
Experimental: FIG. 3(A) MDA-MB-453 and (B) T47D human breast cancer cells were treated with 10 μM of various quinolines for 7 days. Base agar plates were prepared containing 0.8% agar and 0.4% agar in Ham's F12. Cells (5×10^4 cells/33 mm well) were suspended in 100 μl of Ham's F12 with 0.4% agar and plated. These plates were maintained at 37° C. for 7 days and examined for the presence of colonies. Individual colonies of 40 μm or greater were examined. […] However, PQ3 caused a 2.3-fold increase in colony growth in MDA-MB-453 cells and PQ2 caused a 2.6-fold increase in T47D colony growth compared to DMSO. FIGS. 7 and 8 show MDA-MB-453 and T47D colony growth for various concentrations of PQ1 and SA tested for 7 days. The procedures are generally as described above. The cell colony growth decreased using 10 and 100 nM PQ1 for both cell types. Colony Growth Assay: T47D human breast cancer cells were treated with PQ1. Base agar plates were prepared containing 0.8% agar and 0.4% agar in Ham's F12. Cells (5×10^4 cells/33 mm2 well) were suspended in 100 μl of Ham's F12 with 0.4% agar and plated. These plates were maintained at 37° C. for 7 days and examined for the presence of colonies. Individual colonies of 40 um or greater were examined.

[3] = tested on: MDA-MB-453 cells; experiment: Gap junction activity (GJIC), flow cytometry of dye coupling, MDA-MB-453 cells; assay type: cell-based, human; settings: for effect on gap junction intercellular communication: Table 1
Experimental: FIG. 4(A) MDA-MB-453 and (B) T47D cells were treated with low (500 nM) and high (10 μM) concentrations of PQs for 24 hours. Monolayers of acceptor cell population were grown on 25-cm flasks in the presence of Vibrant DiD. Vybrant DiD in acceptor cells is not able to pass through the gap junctions because of its hydrophobic property. Single cell suspensions of donor treated cells were prepared, labeled with 0.05 μg/ml calcein-AM, incubated at 37 C for 5 minutes. Quantification of dye coupling between the donor and acceptor cells was assessed by dual-excitation flow cytometry. […] Cells treated with 10 μM PQ3 have approximately 40-50% decrease in gap junction activity compared control or DMSO.

[4] = tested on: SW620 colon cancer cells; experiment: Gap junction activity, SW620 colon cancer cells; assay type: cell-based
Experimental: However, PQ3 has an opposite effect on mammary cancer cell lines. […] A summary of PQ-mediated GJIC activity and colony growth in breast and colon cancer cells is presented in Tables 1, 2, and 3, as well as FIGS. 10-13. In FIG. 10, SW620 cells were dosed for 24 hours with PQ1 at 100, 200, 300, and 500 nM. The gap junction activity was measured as a percent of control, as previously described. It was seen that all concentrations on PQ1 increased the gap junction activity in SW620 colon cancer cells as compared to the control. In FIG. 11, the effect of PQ1 on the expression of PKCγ was studied at concentrations of 100, 200, 300 and 500 nM PQ1 for 24 hours. It is seen in FIG. 11 that PQ1 has no effect on the expression of PKCγ at the levels tested. In FIGS. 12 and 13, the effect of PQ1 on the colony growth of SW620 colon cancer cells was measured with 1-100 nM PQ1 (FIG. 12) and 10 uM PQ1 (FIG. 13).

[5] = tested on: human primary epithelial cells (MEC, normal cells); experiment: Scrape load/dye transfer GJIC assay, primary epithelial cells (MEC); assay type: cell-based; settings: compared to its controls
Experimental: Intercellular communication in many organs is maintained via GJIC. Several GJIC enhancers have been reported; however, an effective clinical drug targeting gap junction is not available at this time. The effect of PQ1 on the GJIC activity in T47D breast cancer cells was tested. […] Conversely, PQ1 has no effect on GJIC activity of human primary epithelial cells (MEC, normal cells) compared to its controls (data not shown). The distance of dye transfer from section cut to the farthest cells with dye was measured. […] MECs have uniform uptake of Lucifer yellow. This is due to the existing high level of gap junction activity of these normal cells.
Gap Junction Activity. For scrape load/dye transfer (SL/DT) assay, cells were grown to 90% confluency on cover slips, dosed with 10, 50, 100 and 200 nM of TCDD for 40 minutes. After that cells were washed three times with PBS. The 2.5 μl of 1% (w/v) Lucifer yellow and 0.75% (w/v) of Rhodamine dextran was mixed and added in the center of the coverslip. Two cuts crossing each other in the center of the coverslip were made. After three minutes, cells were washed three times with PBS and incubated at 37° C. in tissue culture media for 20 minutes. The cells were then washed with PBS three times and fixed in 2.5% paraformaldehyde for 10 minutes. Cells were mounted on a slide, sealed and visualized under a fluorescence microscope at 10× objective.

| SMILES | block of lucifer yellow dye transfer through gap junctions ([1]; compared to untreated control cells) | colony growth attenuation ([2]; 10 μM, 7 days, compared to control) | cell colony growth ([2]; 10 and 100 nM, 7 days) | effect on breast cancer cell colony growth [2] | increase of gap junction activity ([3]; MDA-MB-453, 500 nM, 24 hours, compared to control) [fold] | increase in GJIC ([3]; MDA-MB-453, FIG. 4, 24 hours) | effect on gap junction intercellular communication ([3]; MDA-MB-453, 500 nM) | gap junction activity as compared to the control ([4]; 100, 200, 300 and 500 nM, 24 hours) | effect on gap junction intercellular communication ([4]; Table 3, 300 nM) | GJIC activity [5] | inhibition at 10 µM ([1]; Rattus norvegicus, R28, 40 min, as compared with the control, read-out: inhibitory activity on gap junction dye transfer) [%] | decrease in gap junction activity (GJIC) ([3]; 10 μM, 24 hours, compared to control or DMSO) | effect on gap junction intercellular communication ([3]; MDA-MB-453, concentration not given) | effect on gap junction intercellular communication ([4]; Table 3, 500 nM) |
| --- | --- | --- | --- | --- | --- | --- | --- | --- | --- | --- | --- | --- | --- | --- |
| COc1cc(NCCCN)c2nccc(C)c2c1Oc1cccc(C(F)(F)F)c1.O=C(O)CCC(=O)O [PQ1, 6-Methoxy-8-[(3-aminopropyl)amino]-4-methyl-5-(3-trifluoromethylphenyloxy) quinoline succinic acid] | hardly any passage of the dye | 80-95% | decreased | Decrease | 1.5 | 20-50% | Increase | increased | Increase | no effect | – | – | – | – |
| COc1cc(N)c2nccc(C)c2c1Oc1cccc(C(F)(F)F)c1 [PQ3, 8-Amino-6-methoxy-4-methyl-5-(3-trifluoromethylphenyloxy)quinoline] | – | – | – | Increase | – | – | – | – | – | – | ~20 | 40-50% and 50% | Decrease | Increase |

Source: patent US8809368B2, “Compounds affecting gap junction activity” (Kansas State University Research Foundation, priority 2006, dated 2014)
